Laboratory results: ChEMBL document CHEMBL4145655, “Confirmation of the Revised Structure of Samoquasine A and a Proposed Structural Revision of Cherimoline” (2018)
Calls of active or inactive are those of the source. The rule behind the calls is not given here.

What was measured:
[1] = test system: Panel NCI-60 (60 carcinoma cell lines); test: Cytotoxicity against human NCI60 cells at 10 uM after 48 hrs by sulforhodamine B assay; format: functional, cell-based
HONE1 cell line = test: Growth inhibition of human HONE1 cells at 50 ug/ml relative to control; format: functional; settings: read-out: GI
NUGC = test: Growth inhibition of human NUGC cells at 50 ug/ml relative to control; format: functional; settings: read-out: GI

Cn1ccc2c(cnc3ccccc32)c1=O
Activity [1]: inactive

O=c1[nH]ccc2c1cnc1ccccc12
inhibition of growth at 50 µg/mL (HONE1 cell line): 62%
Activity [1]: inactive
inhibition of growth at 50 µg/mL (NUGC): 63%

O=c1occc2c1cnc1ccccc12
Activity [1]: inactive
